Target: T1, Potassium voltage-gated channel subfamily A member 3 (Homo sapiens, UniProt P22001)
Assay: Inhibition of Kv1.3 (unknown origin)
Type: single protein
Conditions: not given

T1 sequence (P22001 whole entry): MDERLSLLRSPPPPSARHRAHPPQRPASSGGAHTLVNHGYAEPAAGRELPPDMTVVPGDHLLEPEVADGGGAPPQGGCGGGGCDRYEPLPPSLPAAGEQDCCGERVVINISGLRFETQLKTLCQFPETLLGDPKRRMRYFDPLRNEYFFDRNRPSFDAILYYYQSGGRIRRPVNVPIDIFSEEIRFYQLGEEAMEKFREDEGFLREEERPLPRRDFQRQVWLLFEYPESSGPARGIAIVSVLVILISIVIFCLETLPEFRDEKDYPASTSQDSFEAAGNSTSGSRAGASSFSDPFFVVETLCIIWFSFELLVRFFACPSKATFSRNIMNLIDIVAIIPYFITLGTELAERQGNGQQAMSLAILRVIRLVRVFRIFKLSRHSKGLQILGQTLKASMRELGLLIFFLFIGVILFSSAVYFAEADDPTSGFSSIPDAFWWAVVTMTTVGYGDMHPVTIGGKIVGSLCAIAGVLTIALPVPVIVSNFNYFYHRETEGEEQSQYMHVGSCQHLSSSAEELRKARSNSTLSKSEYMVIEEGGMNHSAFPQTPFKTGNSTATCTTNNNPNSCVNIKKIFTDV

EC50 [nM]	SMILES
20	O=c1ccc2c(OCCCCOc3cccc4ccccc34)c3ccoc3cc2o1
5000	N#CCCCOc1c2ccoc2cc2oc(=O)ccc12
35	CCc1ccc(OCCCCCOc2c3ccoc3cc3oc(=O)ccc23)cc1
49	O=c1ccc2c(OCCCCOCc3ccccc3)c3ccoc3cc2o1
1300	N#CCCCCOc1c2ccoc2cc2oc(=O)ccc12
13	CCc1ccc(OCCCCOc2c3ccoc3cc3oc(=O)ccc23)cc1
15	O=c1ccc2c(OCCCOc3ccccc3)c3ccoc3cc2o1
8	COc1ccc(OCCCCOc2c3ccoc3cc3oc(=O)ccc23)cc1
75	COc1cc(OC)cc(OCCCOc2c3ccoc3cc3oc(=O)ccc23)c1
120	COc1cc(OC)cc(OCCCCOc2c3ccoc3cc3oc(=O)ccc23)c1
5000	N#CCCCOc1c2occc2cc2ccc(=O)oc12
700	Cc1ccc(OCCCCOc2c3ccoc3cc3oc(=O)ccc23)c([N+](=O)[O-])c1
35	COc1ccc2sc(SCCCCOc3c4ccoc4cc4oc(=O)ccc34)nc2c1
125	O=c1ccc2ccc(OCCCCOc3c4ccoc4cc4oc(=O)ccc34)cc2o1
31	O=C(CCCOc1c2ccoc2cc2oc(=O)ccc12)c1ccccc1
21	COc1cccc(OCCCCOc2c3ccoc3cc3oc(=O)ccc23)c1
5	O=c1ccc2c(OCCCCOc3ccc(Cl)cc3)c3ccoc3cc2o1

EC50 [nM]	SMILES
7	O=c1ccc2c(OCCCCOc3ccc([N+](=O)[O-])cc3)c3ccoc3cc2o1
45	COc1cccc(OCCCOc2c3ccoc3cc3oc(=O)ccc23)c1
175	Cc1nnc(SCCCCOc2c3ccoc3cc3oc(=O)ccc23)s1
50	O=c1ccc2c(OCCCCSc3ncccn3)c3ccoc3cc2o1
10	O=c1ccc2c(OCCOCc3ccccc3)c3ccoc3cc2o1
7	Cc1ccc(OCCCCOc2c3ccoc3cc3oc(=O)ccc23)cc1
16	O=c1ccc2c(OCCCCOc3ccc(Oc4ccccc4)cc3)c3ccoc3cc2o1
5000	N#CCCCCOc1c2occc2cc2ccc(=O)oc12
14	CCc1ccc(OCCCOc2c3ccoc3cc3oc(=O)ccc23)cc1
15	O=c1ccc2c(OCCCCCOc3ccccc3)c3ccoc3cc2o1
32	COc1cc(OC)cc(OCCCCCOc2c3ccoc3cc3oc(=O)ccc23)c1
65	O=c1ccc2c(OCCCCOc3cccc(C(F)(F)F)c3)c3ccoc3cc2o1
450	O=c1ccc2c(OCCCCn3cccn3)c3ccoc3cc2o1
10	O=c1ccc2c(OCCCOc3ccc(Cl)cc3)c3ccoc3cc2o1
50	O=c1ccc2c(OCCCOCc3ccccc3)c3ccoc3cc2o1
12	O=c1ccc2c(OCCCCOc3ccc4ccccc4c3)c3ccoc3cc2o1

Target: Potassium voltage-gated channel subfamily A member 2 (Homo sapiens, UniProt P16389)
Assay: Inhibition of Kv1.2 (unknown origin)
Conditions: not given

Potassium voltage-gated channel subfamily A member 2, sequence (P16389 whole entry): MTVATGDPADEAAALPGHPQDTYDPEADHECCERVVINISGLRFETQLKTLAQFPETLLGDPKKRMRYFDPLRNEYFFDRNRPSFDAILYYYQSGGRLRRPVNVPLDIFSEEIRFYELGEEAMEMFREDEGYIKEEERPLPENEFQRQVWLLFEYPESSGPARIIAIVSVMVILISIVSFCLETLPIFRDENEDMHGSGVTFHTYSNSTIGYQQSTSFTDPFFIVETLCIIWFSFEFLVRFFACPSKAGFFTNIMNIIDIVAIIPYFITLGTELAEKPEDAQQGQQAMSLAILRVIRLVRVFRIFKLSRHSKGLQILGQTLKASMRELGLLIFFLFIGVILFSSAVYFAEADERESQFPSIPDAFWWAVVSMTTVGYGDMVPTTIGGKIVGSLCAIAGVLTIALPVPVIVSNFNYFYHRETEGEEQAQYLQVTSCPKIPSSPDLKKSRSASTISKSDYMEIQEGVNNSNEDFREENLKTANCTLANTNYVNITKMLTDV

EC50 [nM]	SMILES
250	O=c1ccc2c(OCCCCOc3ccccc3)c3ccoc3cc2o1

Target: T1, Potassium voltage-gated channel subfamily A member 3
Assay: Ratio of IC50 for Kv1.3 in human central memory T cells to IC50 for Kv1.3 in CD4+ MBP-specific multiple sclerosis patient effector memory T lymphocytes stimulated with 3 times MBP
Type: cell-based
Conditions: T-cell

SMILES	Ratio IC50
CC[C@H](C)[C@@H]1NC(=O)[C@@H](NC(=O)[C@H](CO)NC(=O)[C@@H](N)CCCNC(=N)N)CSSC[C@@H](C(=O)O)NC(=O)[C@H]([C@@H](C)O)NC(=O)CNC(=O)[C@@H]2CSSC[C@@H]3NC(=O)[C@H](CCC(N)=O)NC(=O)[C@H](Cc4ccccc4)NC(=O)[C@H](C)NC(=O)[C@H]([C@@H](C)O)NC(=O)[C@H](CSSC[C@H](NC(=O)[C@H](Cc4ccccc4)NC(=O)[C@@H](CO)NC(=O)[C@@H](CC(C)C)NC(=O)[C@H](CCCNC(=N)N)NC(=O)[C@H](Cc4ccc(O)cc4)NC(=O)[C@H](CCCCN)NC(=O)[C@H](CCSC)NC(=O)[C@H](CO)NC(=O)[C@H](Cc4cnc[nH]4)NC(=O)[C@H](CCCCN)NC3=O)C(=O)N[C@@H](CCCNC(=N)N)C(=O)N[C@@H](CCCCN)C(=O)N[C@@H]([C@@H](C)O)C(=O)N2)NC(=O)[C@H](CCCNC(=N)N)NC(=O)[C@H](CO)NC(=O)[C@H](CCCCN)NC(=O)[C@@H]2CCCN2C(=O)[C@H]([C@@H](C)CC)NC(=O)[C@H]([C@@H](C)O)NC(=O)[C@H](CC(=O)O)NC1=O	10

— ChEMBL document CHEMBL3879885 (2006)
